The values below come from PubChem BioAssay (NCI).

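Assay format: 96-well plates, 48-hour exposure. TGI is the concentration that stops growth completely.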

Test systems include HCT-116 colon; SN12C renal; K-562 leukemia; HS 578T breast; RPMI-8226 leukemia; OVCAR-8 ovarian; LOX IMVI melanoma; NCI-H460 lung; 786-0 renal; SK-MEL-28 melanoma.
Holding throughout (assay): inhibition of tumour cell growth, NCI panel, 48 h

`O=P(O)(O)C(O)/C=C/c1ccccc1` (stereo not given): the TGI with HCT-116 colon, with SN12C renal, in the assay with K-562 leukemia, in the assay with HS 578T breast, in the assay on RPMI-8226 leukemia and in the assay with OVCAR-8 ovarian was above 100 µM each time. The TGI in the assay on LOX IMVI melanoma, in the assay with NCI-H460 lung, with 786-0 renal and in the assay with SK-MEL-28 melanoma was above 100 µM in each case.

With `O=C1c2cc3ccccc3cc2C2(c3ccc(Cl)cc3)N[C@H]3CCCC[C@@H]3N12` (stereo not given in full), the TGI was 18.8 µM in the assay with HCT-116 colon; 43.8 µM in the assay with SN12C renal; above 100 µM with K-562 leukemia; 27.9 µM with HS 578T breast; above 100 µM in the assay with RPMI-8226 leukemia; 19.4 µM in the assay with OVCAR-8 ovarian. The TGI stood at 55.8 µM in the assay with LOX IMVI melanoma, 47.3 µM with NCI-H460 lung, 23.3 µM in the assay on 786-0 renal and 28.1 µM in the assay on SK-MEL-28 melanoma.

As to `COC(=O)C(CCC1C=CCC1)N=Cc1ccccc1` (stereo not given), the TGI in the assay on HCT-116 colon is above 100 µM; with SN12C renal, above 100 µM; in the assay with K-562 leukemia, above 100 µM; in the assay on HS 578T breast it was above 100 µM; in the assay with RPMI-8226 leukemia it was 84.7 µM; in the assay on OVCAR-8 ovarian, above 100 µM. The TGI in the assay with LOX IMVI melanoma, in the assay on NCI-H460 lung, with 786-0 renal and with SK-MEL-28 melanoma was above 100 µM throughout.

As for `O=C(CN1CCN(C(=O)OCc2ccccc2)CCN(CC(=O)N2CCCCC2)CCN(C(=O)OCc2ccccc2)CC1)N1CCCCC1`, the TGI in the assay with HCT-116 colon was found to be 18.5 µM; with SN12C renal, 26.8 µM; in the assay on K-562 leukemia it was 32.7 µM; in the assay on HS 578T breast, 35.2 µM; in the assay with RPMI-8226 leukemia, 37.3 µM; in the assay on OVCAR-8 ovarian, 33.8 µM. The TGI in the assay with LOX IMVI melanoma was 28.1 µM; in the assay on NCI-H460 lung, 26.7 µM; in the assay with 786-0 renal it was above 45.9 µM; with SK-MEL-28 melanoma, 27.9 µM.

Consider `CC1(c2ccc(Cl)cc2)CC(c2ccc(Cl)cc2)=C(C#N)C(=C(C#N)C#N)N1` (stereo not given), for which the TGI with HCT-116 colon was 31.7 µM; in the assay on SN12C renal it was 37.2 µM; in the assay on K-562 leukemia, 66.2 µM; in the assay on HS 578T breast, 50.3 µM; in the assay on RPMI-8226 leukemia it was above 100 µM; in the assay on OVCAR-8 ovarian it was 34 µM. In addition, the TGI in the assay on LOX IMVI melanoma was 33.6 µM; with NCI-H460 lung, 73.3 µM; in the assay on 786-0 renal, 24.7 µM; in the assay on SK-MEL-28 melanoma, above 100 µM.

As to `Cc1ccc2c(c1)NC(=O)CCSSCCC(=O)N2`, the TGI with HCT-116 colon, with SN12C renal, in the assay with K-562 leukemia, in the assay with HS 578T breast, in the assay with RPMI-8226 leukemia and in the assay on OVCAR-8 ovarian was above 100 µM in each case. The TGI in the assay with LOX IMVI melanoma, in the assay with NCI-H460 lung, in the assay on 786-0 renal and with SK-MEL-28 melanoma was above 100 µM throughout.

`O=C1CCCc2c1c1c(n2Cc2ccccc2)-c2ccccc2C1=O`: the TGI worked out at 31.1 µM in the assay on HCT-116 colon; 45.5 µM in the assay on SN12C renal; 46.6 µM with K-562 leukemia; 77.3 µM in the assay with HS 578T breast; 24.3 µM in the assay on RPMI-8226 leukemia; 34 µM in the assay with OVCAR-8 ovarian. The TGI was 39.5 µM in the assay with LOX IMVI melanoma, above 100 µM in the assay with NCI-H460 lung, 66.5 µM in the assay on 786-0 renal and 55.1 µM in the assay on SK-MEL-28 melanoma.

On to `CC(=O)Nc1ncc(Sc2ccccc2C(=O)O)s1`, for which the TGI in the assay on HCT-116 colon, in the assay with SN12C renal, with K-562 leukemia, with HS 578T breast, with RPMI-8226 leukemia and with OVCAR-8 ovarian was above 100 µM each time. Also, the TGI with LOX IMVI melanoma, with NCI-H460 lung, with 786-0 renal and in the assay with SK-MEL-28 melanoma was above 100 µM throughout.
